Measurements taken from US11760750B1, “Process for preparing levoketoconazole” (Nuray Chemicals Private Limited, priority 2022, dated 2023).

Legend:
[1] = Powder flow of crystalline levoketoconazole: bulk density, tapped density, Hausner Ratio, Carr Index (USP <1174>); assay type: physicochemical
Protocol: The Hausner Ratio is a value calculated by dividing the tapped density of the levoketoconazole by the freely settled bulk density of the levoketoconazole. The freely settled bulk density is calculated by pouring a known weight of material into a measuring cylinder and recording the volume. The tapped density is calculated by tapping the cylinder against a surface for a specified numbers of times and recording again the new volume.
The Carr (or Compressibility) Index is frequently used in pharmaceutics as an indication of the compressibility of a powder. The Carr Index may be calculated by dividing the difference of the tapped and bulk densities by the tapped density and then multiplying by 100. In a free-flowing powder, the bulk density and tapped density would be close in value; therefore, the Carr Index would be small. On the other hand, in a poor-flowing powder where there are greater interparticle interactions, the difference between the bulk and tapped density observed would be greater, therefore, the Carr Index would be larger.

Solubility in water = assay type: physicochemical

CC(=O)N1CCN(c2ccc(OC[C@@H]3CO[C@@](Cn4ccnc4)(c4ccc(Cl)cc4Cl)O3)cc2)CC1 [crystalline levoketoconazole, (2S,4R)-cis-1-acetyl-4-[4-[[2-(2,4-dichlorophenyl)-2-(1H-imidazol-1-ylmethyl)-1,3-dioxolan-4-yl]methoxyl]phenyl] piperazine]
Carr Index (Compressibility Index) [1]: below 15
flowability (flow character by Hausner Ratio) [1]: good
bulk density ([1]; 100 g sample, 250 mL graduated cylinder): about 0.576 g/mL
Hausner Ratio ([1]; 500 taps): 1.120
Hausner Ratio ([1]; 1250 taps): 1.18
tapped density ([1]; after 500 taps): about 0.686 g/mL
tapped density ([1]; after 1,250 taps): about 0.681 g/mL
solubility in water (Solubility in water): poorly soluble in water
